Laboratory results reported in patent publication US20170348330A1, “ANTIVIRAL COMPOUND AND ANALOGUES THEREOF FOR TREATMENT OR PREVENTION OF FLAVIVIRUS DENGUE/ZIKA INFECTIONS” (Canopus BioPharma Incorporated, priority 2016, published 2017).
Several values for one entry are separate records, joined by “and”; a condition that tells them apart may be missing. Equal entries are not always repeated. Where two headings read alike, the source gives them in different places.

Tests used:
[1] = cited from earlier work
[2] = laboratory animals; cited from earlier work
Zika virus = assay: ZIKA anti-viral in-vitro testing in VERO cells (Naftol blue-black staining, absorbance at 450 nm); settings: for Absorbance at 450 nm: Zika MOI 0.1, VERO cells, 72 hours, threshold 0.382, replicate wells
Experimental: ZIKA Anti-Viral In-Vitro Testing and Antiviral Assay Report:
Controls: Medium with DMSO at 1% start concentration; Zika virus for infection at 0.1 MOI; VERO cells on VP medium (serum-free).
Procedure: Antivirals were diluted as information provided to stock concentrations of 10 mM in 100% DMSO.
• 1—VERO cells in VP were inoculated in 200 μL/well at 5.0×10^4 cells/mL in 96-well plates. • 2—Incubated at 37° C. for 48 hours. • 3—With 80% confluence the test was performed as follows: culture medium was changed for 150 μL of fresh VP in columns 2 to 10. Antivirals diluted at 100 μM in VP medium were placed in the column 1 (300 μL). Serial dilutions from 1 to 10 were performed by passing 150 μL of medium (1:2). Plates were incubated at 37° C. for 2 hours. Zika virus diluted in VP medium to the final infection ration desired of MOI 0.1 in 100 μL of VP was added to wells. • 4—Plates were incubated for 72 hours and checked each 24 hours for cytotoxicity or cytopathic effect. • 5—Plates were washed and stained with Naftol blue-black. Absorbance was measured at 450 nm.
DMSO cytotoxicity Antiviral cytotoxicity Primary Threshold for virus inhibition. Absorbance above 0.382

[3] = cited from earlier work; for mean Cmax concentrations: healthy subjects
[4] = Eplerenone PK and concentrations reported in humans; format: in vivo, human; settings: for Cmax: human, plasma, po
Excerpt: Clinical data: Eplerenone PK and concentrations reported in humans:
Referring now to FIG. 5 and FIG. 6, Eplerenone Cmax concentrations achieved in normal subjects is illustrated, as well as subjects with varying degrees of renal impairment after single and multiple doses of Eplerenone given orally.
The charts illustrate the feasibility of achieving anti-viral Cmax concentrations using Eplerenone in human and show Eplerenone plasma concentration vs. time curves.
In multiple dose studies, it is shown that Eplerenone steady state concentrations may be reached within 4 days. […] This preferred embodiment may be adjusted according to the specific conditions of the human subject.

dengue [5] = settings: by inhibiting the dengue 2′-O-methyltransferase NS5 domain; cited from earlier work
dengue [6] = settings: cited from earlier work
dengue [7] = settings: mouse model; cited from earlier work

SMILES	Absorbance at 450 nm (Zika virus; 0.19 μM)	Absorbance at 450 nm (Zika virus; 0.78 μM)	Absorbance at 450 nm (Zika virus; 1.56 μM)	Absorbance at 450 nm (Zika virus; 3.12 μM)	Absorbance at 450 nm (Zika virus; 6.25 μM)	Absorbance at 450 nm (Zika virus; 12.5 μM)	Absorbance at 450 nm (Zika virus; 25 μM)	Absorbance at 450 nm (Zika virus; 50 μM)	also measured
COC(=O)[C@@H]1CC2=CC(=O)CC[C@]2(C)[C@@]23O[C@@H]2C[C@@]2(C)[C@@H](CC[C@@]24CCC(=O)O4)[C@H]13 [Eplerenone, pregn-4-ene-7,21-dicarboxylic acid, 9,11-epoxy-17-hydroxy-3-oxo, γ-lactone, methyl ester (7α, 11α, 17α)]	0.449 and 0.441 and 0.468 and 0.469	0.433 and 0.434 and 0.432 and 0.428	0.369 and 0.466 and 0.453 and 0.443	0.4 and 0.423 and 0.453 and 0.441	0.376 and 0.448 and 0.411 and 0.397	0.334 and 0.333 and 0.373 and 0.341	0.29 and 0.288 and 0.291 and 0.271	0.217 and 0.238 and 0.209 and 0.182	Pregnancy category ([1]; animal reproduction studies failed to demonstrate a risk to the fetus): category B; Tolerability ([1]; human): generally well tolerated; Dose with noticeable risk of foetal abnormalities [2]: over 1000 times the recommended daily dose; In-vitro concentrations showing anti-viral activity against Zika virus (Zika virus; columns 6-10 of the report, comparable to Butantan control): 0.19 to 3.12 µM; mean Cmax concentrations ([3]; dose 100 mg orally): 1720 ng/mL; mean Cmax concentrations ([3]; single dose of 50 mg orally): 1173 ng/mL; Accumulation: steady state Cmax compared with single dose administration ([3]; multiple dose studies): no significant accumulation; Time to reach steady state concentrations ([3]; multiple dose studies): ≤ 4 days; Peak plasma concentrations (Cmax) ([3]; therapeutic doses of oral Eplerenone (100 mg), human): up to 1720 ng/ml; Cmax relative to in-vitro concentration of column#9 ([…]) ([4]; Cmax […] after 100 mg oral vs in-vitro […]): 10 times; Cmax ([4]; 50 mg, healthy subjects, single dose of 50 mg orally, read-out: mean Cmax concentrations, equivalent): 2.8 µM; Cmax ([4]; 100 mg, healthy subjects, dose 100 mg orally, read-out: mean Cmax concentrations, equivalent): 4.1 µM; Cmax ([4]; 100 mg, therapeutic doses of oral Eplerenone (100 mg), read-out: Peak plasma concentrations (Cmax), equivalent): ≤ 4.1 µM
COCCOC(=O)C1=C(C)NC(C)=C(C(=O)OC(C)C)C1c1cccc([N+](=O)[O-])c1 (centres unmarked) [Nimodipine]	0.206 and 0.321 and 0.378 and 0.354	0.142 and 0.293 and 0.459 and 0.396	0.202 and 0.387 and 0.46 and 0.397	0.235 and 0.468 and 0.451 and 0.415	0.263 and 0.363 and 0.451 and 0.395	0.276 and 0.282 and 0.347 and 0.305	0.21 and 0.224 and 0.271 and 0.217	0.091 and 0.113 and 0.117 and 0.092	
NC(=O)c1ncn([C@@H]2O[C@H](CO)[C@@H](O)[C@H]2O)n1 [Ribavirin]									Activity against dengue in tissue culture (dengue [5]): works against dengue in tissue culture; Adverse effects in dengue animal models (dengue [6]; mouse model or rhesus monkey model (species not specified)): induced anemia and thrombocytosis; Protection against dengue (dengue [6]; rhesus monkey model): did not show protection; Protection against dengue (dengue [7]): did not show protection
CC(=O)S[C@@H]1CC2=CC(=O)CC[C@]2(C)[C@H]2CC[C@@]3(C)[C@@H](CC[C@@]34CCC(=O)O4)[C@H]12 [Spironolactone]	0.22 and 0.2 and 0.183 and 0.095	0.328 and 0.23 and 0.168 and 0.063	0.328 and 0.318 and 0.2 and 0.069	0.359 and 0.317 and 0.223 and 0.06	0.358 and 0.307 and 0.263 and 0.097	0.338 and 0.342 and 0.234 and 0.092	0.255 and 0.257 and 0.214 and 0.076	0.079 and 0.082 and 0.074 and 0.047	
